Read-outs that look alike come from different tables or passages of the source. Blank lines part the entries; values can stand above or below the molecule they belong to.
Legend:
[1] = set-up: method as in earlier work; conditions: patients; cited from earlier work
[2] = patients; cited from earlier work
[3] = set-up: method as in PMID 34531260; conditions: patients; cited from earlier work
[4] = test system: LNCaP tumor xenografts; set-up: method as in PMID 30136051; conditions: 24 h after injection, cited from earlier work
[5] = molecular target: T1, human serum albumin (HSA) (Homo sapiens, UniProt P02768); assay: Binding to HSA by albumin-mediated size-exclusion chromatography (AMSEC), apparent molecular weight; type: in vitro ADME; conditions: HSA buffer at physiologic concentration as mobile phase, room temperature, window 2.1-70.2 kDa
T1 construct: purchased Biowest
T1 sequence (P02768 25-609): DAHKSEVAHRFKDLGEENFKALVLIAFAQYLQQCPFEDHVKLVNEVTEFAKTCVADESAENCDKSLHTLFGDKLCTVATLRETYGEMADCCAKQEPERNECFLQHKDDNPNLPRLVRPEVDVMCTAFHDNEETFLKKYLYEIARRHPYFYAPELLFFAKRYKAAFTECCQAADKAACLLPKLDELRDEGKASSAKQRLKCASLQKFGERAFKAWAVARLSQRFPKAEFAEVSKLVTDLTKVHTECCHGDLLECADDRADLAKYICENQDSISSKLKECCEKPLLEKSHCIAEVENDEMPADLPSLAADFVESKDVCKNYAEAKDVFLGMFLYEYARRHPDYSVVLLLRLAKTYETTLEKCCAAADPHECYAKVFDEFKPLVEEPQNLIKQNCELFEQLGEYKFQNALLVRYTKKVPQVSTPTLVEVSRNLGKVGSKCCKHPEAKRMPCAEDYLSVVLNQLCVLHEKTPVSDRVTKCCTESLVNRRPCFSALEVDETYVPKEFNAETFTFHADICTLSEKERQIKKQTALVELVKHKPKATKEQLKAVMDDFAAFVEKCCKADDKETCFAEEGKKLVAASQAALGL
Procedure: Binding of ^177Lu-labeled ligands to HSA was assessed by albumin-mediated size-exclusion chromatography (AMSEC), a novel method that has recently been developed by our group to determine the apparent molecular weight (AMW) of a compound in the presence of HSA. A dedicated and detailed description of the AMSEC method will be published elsewhere to cover the context and the development process of this method in its entirety. Briefly, a gel filtration size-exclusion column (Superdex 75 Increase 10/300 GL; fractionation range, 70–3 kDa; GE Healthcare) was calibrated as recommended by the manufacturer using a commercially available set of proteins (Gel Filtration LMW Calibration Kit; GE Healthcare). AMSEC experiments were performed by injection of the various radioligands using an HSA buffer at physiologic concentration (Biowest) as the mobile phase at room temperature. Depending on the strength of the HSA/ligand interaction during the chromatographic procedure, an injected radioligand (1.0 MBq, 10–20 GBq/μmol) can show a reduced retention time that correlates to AMWs higher than the actual, physical, molecular weight (the latter being for all investigated ligands < 2 kDa, and thus below the column fractionation range). The stronger this interaction, the longer the mean time the ligand is bound to HSA during the chromatographic process and the faster the ligand is eluted from the column. By means of calibration, the retention time can be translated into a ligand-specific AMW (expressed in kDa) as a parameter allowing quantification of the extent of HSA binding. The detection window ranges between 2.1 kDa (cutoff value, determined by [^18F]fluoride; no HSA interaction) and 70.2 kDa (experimental molecular weight of HSA; maximum HSA interaction). [^177Lu]Lu-rhPSMA-7.3 served as an internal standard during AMSEC studies (30.4 ± 0.5 kDa; n = 10).

[6] = molecular target: T2, PSMA (Homo sapiens, UniProt Q04609); assay: Competitive binding (IC50) on LNCaP cells against ([125I]IBA)KuE
T2 construct: endogenous in cells; host or cells: LNCaP cells
T2 sequence (Q04609 whole entry): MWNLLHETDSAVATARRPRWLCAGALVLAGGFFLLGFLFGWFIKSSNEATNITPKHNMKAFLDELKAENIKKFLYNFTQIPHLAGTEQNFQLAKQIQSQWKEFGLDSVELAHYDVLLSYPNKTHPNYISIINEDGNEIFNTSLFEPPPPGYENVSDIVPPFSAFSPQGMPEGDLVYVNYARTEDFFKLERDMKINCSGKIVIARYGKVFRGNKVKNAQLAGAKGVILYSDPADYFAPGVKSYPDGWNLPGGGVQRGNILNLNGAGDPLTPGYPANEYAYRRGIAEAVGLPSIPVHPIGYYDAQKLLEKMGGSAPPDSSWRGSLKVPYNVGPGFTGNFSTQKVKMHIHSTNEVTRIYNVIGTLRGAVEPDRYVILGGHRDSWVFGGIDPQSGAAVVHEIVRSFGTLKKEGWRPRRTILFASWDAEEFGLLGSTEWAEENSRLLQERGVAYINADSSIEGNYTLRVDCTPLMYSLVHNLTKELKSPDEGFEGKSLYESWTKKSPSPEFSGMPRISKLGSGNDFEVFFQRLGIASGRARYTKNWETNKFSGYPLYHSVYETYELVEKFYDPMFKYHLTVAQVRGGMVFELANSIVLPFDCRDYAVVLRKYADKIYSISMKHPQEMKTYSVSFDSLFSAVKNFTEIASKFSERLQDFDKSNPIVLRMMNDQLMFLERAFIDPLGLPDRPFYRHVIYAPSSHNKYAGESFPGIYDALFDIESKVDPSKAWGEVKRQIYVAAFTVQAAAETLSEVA
Procedure: (§1) Competitive binding studies were determined on LNCaP cells (1.5 × 10^5 cells in 0.25 mL/well) after incubation at 4°C for 1 h, using (((S)-1-carboxy-5-(4-([^125I]iodo)benzamido)pentyl)carbamoyl)-L-glutamic acid ([^125I]IBA)KuE; 0.2 nM/well) as the reference radioligand (n = 3). Internalization studies of the radiolabeled ligands (1.0 nM/well) were performed on LNCaP cells (1.25 × 10^5 cells in 0.25 mL/well) at 37°C for 1 h and accompanied by ([^125I]IBA)KuE (0.2 nM/well) as a reference. Data were corrected for nonspecific binding and normalized to the specific internalization observed for the reference (n = 3), as previously published ([8]).

[7] = molecular target: T3, PSMA (LNCaP cells) (Homo sapiens, UniProt Q04609); assay: PSMA-mediated internalization into LNCaP cells; type: cell-based; conditions: 1 h, 37°C, 1.0 nM/well, n = 3
T3 construct: endogenous in cells; host or cells: LNCaP cells
T3 sequence (Q04609 whole entry): as above
Procedure: as §1

[8] = test system: LNCaP tumor xenografts; assay: Biodistribution and small-animal SPECT/CT in LNCaP tumor-bearing mice, 24 h after injection; type: in vivo, male CB-17 SCID mice
Procedure: All animal experiments were conducted in accordance with general animal welfare regulations in Germany (German animal protection act, as amended on May 18, 2018, article 141 G, version March 29, 2017, I 626, approval 55.2-1-54-2532-71-13) and the institutional guidelines for the care and use of animals. LNCaP tumor xenografts were established in 6- to 8-wk-old male CB-17 SCID mice as described previously ([8]).
The ^177Lu-labeled PSMA ligands (2–5 MBq; 0.1 nmol) were injected under isoflurane anesthesia into the tail vein of mice, which were euthanized 24 h after injection (n = 4–5). Selected organs were removed, weighed, and measured in a γ-counter. All rhPSMA ligands were evaluated during the same period (first quarter of 2020), whereas ^177Lu-labeled PSMA-617 and PSMA I&T ([17]) were assessed in 2016, using the identical cell line, mouse model, and experimental procedure.
Static images of ^177Lu-labeled ligands in euthanized mice were recorded 24 h after injection directly after blood collection, with an acquisition time of 45 min using a high-energy, general-purpose rat-and-mouse collimator and a stepwise multiplanar bed movement. For imaging studies, a VECTor4 small-animal SPECT/PET/optical imaging/CT device from MILabs was applied. Data were reconstructed using MILabs.Rec software (version 10.02) and PMOD software (version 4.0; PMOD Technologies LLC). After imaging, the mice underwent biodistribution studies.

[9] = Lipophilicity, n-octanol/phosphate-buffered saline distribution (log D7.4); type: physicochemical; conditions: pH 7.4, n = 6
Procedure: Approximately 1 MBq of the ^177Lu-labeled PSMA ligand was dissolved in 1 mL of a 1:1 mixture (v/v) of phosphate-buffered saline (pH 7.4) and n-octanol (n = 6). After vigorous mixing of the suspension for 3 min, the vial was centrifuged at 15,000g for 3 min, and 100-μL aliquots of both layers were measured in a γ-counter. Finally, the ratio of the radioactivity detected in the n-octanol sample and the phosphate-buffered saline buffer was calculated and expressed as distribution ratio log D7.4.

[10] = LNCaP tumor-bearing SCID mice, identical conditions
[11] = LNCaP tumor-bearing mice, from previously published data
[12] = 24 h after injection, LNCaP tumor-bearing mice
[13] = male, CB-17 SCID, mouse, in vivo, 24 h
[14] = 24 h after injection, LNCaP tumor-bearing SCID mice, mean ± SD, n = 4-5

Structure (SMILES): CC(C)(C)[Si]([18F])(c1ccc(C(=O)NC[C@@H](NC(=O)CC[C@@H](C(=O)O)N2CCN(CC(=O)[O-])CCN(CC(=O)[O-])CCN(CC(=O)[O-])CC2)C(=O)N[C@H](CCCCNC(=O)CCC(=O)NCCC[C@@H](NC(=O)CC[C@H](NC(=O)N[C@@H](CCC(=O)O)C(=O)O)C(=O)O)C(=O)O)C(=O)O)cc1)C(C)(C)C.[Ga+3] [[^18F]Ga-rhPSMA-7.3]
fold higher tumor uptake than diastereomeric mixture [18F]Ga-rhPSMA-7 [1]: 1.6 fold
fold lower excretion into the bladder than diastereomeric mixture [18F]Ga-rhPSMA-7 [1]: 5 fold
fold lower kidney uptake than diastereomeric mixture [18F]Ga-rhPSMA-7 [1]: 1.6 fold

apparent molecular weight (AMW) [5]: 5.3 kDa
IC50 ([6]; LNCaP cells, 1 h, 4°C, ([125I]IBA)KuE 0.2 nM/well as reference radioligand, n = 3, read-out: PSMA binding affinity (half-maximal inhibitory concentration)): 4.2 ± 0.8 nM
PSMA-mediated internalization as percentage of reference ligand ([125I]IBA)KuE [7]: 145% ± 14%
Structure (SMILES): O=C([O-])CC[C@H](NC(=O)N[C@@H](CCCCNC(=O)CCCCCCC(=O)NCCCC[C@@H](NC(=O)[C@@H](Cc1ccccc1)NC(=O)[C@@H](Cc1ccc(O)c(I)c1)NC(=O)CC[C@H](C(=O)[O-])N1CCN(CC(=O)[O-])CCN(CC(=O)[O-])CCN(CC(=O)[O-])CC1)C(=O)[O-])C(=O)[O-])C(=O)[O-].[177Lu+3].[H+].[H+].[H+].[H+].[H+] [[^177Lu]Lu-PSMA I&T]
absorbed dose to the kidney [2]: 0.7 ± 0.2 Gy/GBq
effective dose (tumor) [3]: 2.6 ± 2.4 mGy/MBq
kidney uptake [4, 10]: 34.7 ± 17.2 %ID/g
tumor uptake [4, 10]: 4.1 ± 1.1 %ID/g
tumor-to-blood ratio [4, 11]: 408
tumor-to-kidney ratio [4, 11]: 0.2

Structure (SMILES): O=C(O)CC[C@H](NC(=O)N[C@@H](CCCCNC(=O)[C@H](Cc1ccc2ccccc2c1)NC(=O)[C@H]1CC[C@H](CNC(=O)CN2CCN(CC(=O)O)CCN(CC(=O)O)CCN(CC(=O)O)CC2)CC1)C(=O)O)C(=O)O [[^177Lu]Lu-PSMA-617, metal not drawn]
tumor-to-kidney ratio [8, 12]: 5.9
kidney uptake [8, 13]: 1.4 ± 0.4 %ID/g
tumor uptake [8, 13]: 7.5 ± 0.9 %ID/g
tumor-to-blood ratio [8, 13]: 1,424
apparent molecular weight (AMW) [5]: 13.7 kDa
IC50 [6]: 3.3 ± 0.2 nM
PSMA-mediated internalization as percentage of reference ligand ([125I]IBA)KuE [7]: 203% ± 10%

log D7.4 [9]: −3.8
kidney uptake as percentage of that of [177Lu]Lu-rhPSMA-7.3 ([8]; 24 h after injection): 20%
tumor-to-blood ratio, times higher than for [177Lu]Lu-PSMA-617 ([8]; 24 h after injection): 8 times
tumor-to-blood ratio, times higher than for [177Lu]Lu-rhPSMA-7.3 ([8]; 24 h after injection): 3 times
kidney uptake [8, 14]: 2.0 ± 0.8 %ID/g
tumor uptake [8, 14]: 9.8 ± 0.3 %ID/g
tumor-to-blood ratio [8, 12]: 11,498
tumor-to-kidney ratio [8, 12]: 5.7
tracer uptake in tumor of the imaged mouse ([8]; single mouse of SPECT/CT image, 24 h after injection, from subsequent biodistribution): 9.4 %ID/g
apparent molecular weight (AMW) [5]: 25.1 kDa
Structure (SMILES): CC(C)(C)[Si](F)(c1ccc(C(=O)NC[C@@H](NC(=O)CN2CCN(CC(=O)[O-])CCN(CC(=O)[O-])CCN(CC(=O)[O-])CC2)C(=O)N[C@H](CCCCNC(=O)CCC(=O)NCCC[C@@H](NC(=O)CC[C@H](NC(=O)N[C@@H](CCC(=O)O)C(=O)O)C(=O)O)C(=O)O)C(=O)O)cc1)C(C)(C)C.[177Lu+3] [[^177Lu]Lu-rhPSMA-10.1]

Source: PMC9536713, “Synthesis and Preclinical Evaluation of ^177Lu-Labeled Radiohybrid PSMA Ligands for Endoradiotherapy of Prostate Cancer” (Journal of Nuclear Medicine, 2022)
